Reference: a compilation of properties of binary mixtures

Assay: xn = mol fraction of the nth substance listed
[1] = 298.15 K, 101.3 kPa, x1 = 0.333
[2] = 303.15 K, 101.3 kPa, x1 = 0.333
[3] = 308.15 K, 101.3 kPa, x1 = 0.333
[4] = 313.15 K, 101.3 kPa, x1 = 0.333

SMILES: CC(CC(C)(C)C)CP(=O)([O-])CC(C)CC(C)(C)C.CCCCCCCCCCCCCC[P+](CCCCCC)(CCCCCC)CCCCCC + O
- viscosity (298.15 K, 100 kPa, x1 = 0.0942): 133 mPa·s
- viscosity (298.15 K, 100 kPa, x1 = 0.1083): 128 mPa·s
- viscosity (303.15 K, 100 kPa, x2 = 0.8862): 119.5 mPa·s

SMILES: CCCCC(CC)COC(=O)CC(C(=O)OCC(CC)CCCC)S(=O)(=O)[O-].CCCC[n+]1ccn(C)c1 (centres undefined) + O
- viscosity (313.15 K, 99.6 kPa, x1 = 0.8695): 692 mPa·s
- viscosity (323.15 K, 99.6 kPa, x1 = 0.8695): 363 mPa·s
- viscosity (333.15 K, 99.6 kPa, x1 = 0.8695): 207 mPa·s

SMILES: CCCCCCCC(=O)[O-].CCCCCC[NH+](CCCCCC)CCCCCC + O
- viscosity (298.15 K, 101 kPa, x1 = 0.3915): 15.42 mPa·s
- viscosity (298.15 K, 101 kPa, x1 = 0.7748): 21.01 mPa·s

SMILES: CCCCCCCCCCCCOS(=O)(=O)[O-].CCCC[n+]1ccn(C)c1 + O
- viscosity (303 K, 101 kPa, x1 = 0.011): 300 mPa·s
- viscosity (303 K, 101 kPa, x1 = 0.0288): 113000 mPa·s
- viscosity (303 K, 101 kPa, x1 = 0.0626): 1070000 mPa·s
- viscosity (303 K, 101 kPa, x1 = 0.1512): 4200000 mPa·s
- viscosity (303 K, 101 kPa, x1 = 1): 1.32e+07 mPa·s
- viscosity (333 K, 101 kPa, x1 = 0.011): 25000 mPa·s
- viscosity (333 K, 101 kPa, x1 = 0.0288): 335000 mPa·s
- viscosity (333 K, 101 kPa, x1 = 0.1512): 1780000 mPa·s

SMILES: CCCCCCCCCC[n+]1ccn(C)c1.[Cl-] + O
- electrical conductivity (298.15 K, 101.3 kPa, x1 = 0.0171): 3.25 S/m

SMILES: CCCCCCCCn1cc[n+](C)c1.[Br-] + O
- viscosity (298.15 K, 100 kPa, x2 = 0.9008): 31.3 mPa·s
- viscosity (298.15 K, 100 kPa, x2 = 0.9487): 7.96 mPa·s

SMILES: CCCCCCCCn1cc[n+](C)c1.[Cl-] + O
- speed of sound (298.15 K, 101 kPa, x2 = 0): 1721 m/s
- speed of sound (298.15 K, 101 kPa, x2 = 0.1484): 1666.7 m/s
- speed of sound (298.15 K, 101 kPa, x2 = 0.203): 1655.1 m/s
- speed of sound (298.15 K, 101 kPa, x2 = 0.5334): 1632.2 m/s
- speed of sound (298.15 K, 101 kPa, x2 = 0.6807): 1639.3 m/s
- speed of sound (298.15 K, 101 kPa, x2 = 0.8185): 1650.7 m/s
- speed of sound (298.15 K, 101 kPa, x2 = 0.9307): 1639.6 m/s
- speed of sound (298.15 K, 101 kPa, x2 = 0.9635): 1611.3 m/s

SMILES: CCCCCC[n+]1ccn(C)c1.[Br-] + O
- viscosity (298.15 K, 100 kPa, x2 = 0.9487): 2.88 mPa·s

SMILES: CCCC[NH3+].O=[N+]([O-])[O-] + O
- viscosity (303.15 K, 101 kPa, x2 = 0.3495): 22.35 mPa·s
- viscosity (308.15 K, 101 kPa, x2 = 0.3495): 19.25 mPa·s
- viscosity (313.15 K, 101 kPa, x2 = 0.3495): 16.75 mPa·s

SMILES: CCCC[P+](CCCC)(CCCC)CCCC.[Cl-] + O
- viscosity (313.15 K, 101 kPa, x1 = 0.0438): 2.533 mPa·s

SMILES: CCCC[n+]1ccn(C)c1.[Br-] + O
- viscosity (298.15 K, 100 kPa, x2 = 0.9487): 2.21 mPa·s

SMILES: CC[N+](CC)(CC)CC.[Cl-] + O
- electrical conductivity (323 K, 100 kPa, x1 = 0.2): 4.1 S/m

SMILES: CC[n+]1ccn(C)c1.[Cl-] + O
- viscosity (373 K, 100 kPa, x1 = 0.8): 20 mPa·s
- viscosity (373 K, 100 kPa, x1 = 0.9524): 27 mPa·s

SMILES: CCn1cc[n+](C)c1.O=S(=O)([O-])C(F)(F)C(F)(F)C(F)(F)C(F)(F)F + O
- viscosity (298.15 K, 101.3 kPa, x1 = 0.0001): 1.038 mPa·s
- viscosity (298.15 K, 101.3 kPa, x1 = 0.0005): 1.111 mPa·s
- viscosity (298.15 K, 101.3 kPa, x1 = 0.0011): 1.091 mPa·s
- viscosity (298.15 K, 101.3 kPa, x1 = 0.0018): 1.164 mPa·s
- viscosity (298.15 K, 101.3 kPa, x1 = 0.0049): 1.367 mPa·s
- viscosity (298.15 K, 101.3 kPa, x1 = 0.0109): 1.96 mPa·s
- viscosity (298.15 K, 101.3 kPa, x2 = 0.9783): 3.03 mPa·s

SMILES: C[N+](C)(C)CCO.O=C([O-])[C@@H]1CCCN1 + O
- viscosity (308.15 K, 100 kPa, x1 = 0.0043): 0.91 mPa·s
- viscosity (308.15 K, 100 kPa, x1 = 0.0342): 2.01 mPa·s
- viscosity (323.15 K, 100 kPa, x1 = 0.0202): 1.11 mPa·s
- viscosity (323.15 K, 100 kPa, x1 = 0.0342): 1.52 mPa·s
- viscosity (338.15 K, 100 kPa, x1 = 0.0202): 1 mPa·s
- viscosity (353.15 K, 100 kPa, x1 = 0.0202): 0.88 mPa·s
- viscosity (353.15 K, 100 kPa, x1 = 0.0342): 0.98 mPa·s

SMILES: CC(O)C(=O)[O-].CN(C)CCOCC[NH+](C)C + O
- viscosity (298.15 K, 100 kPa, x1 = 0.0172): 1.2 mPa·s
- viscosity (298.15 K, 100 kPa, x1 = 0.0301): 1.28 mPa·s
- viscosity (298.15 K, 100 kPa, x1 = 0.0456): 1.76 mPa·s
- viscosity (298.15 K, 100 kPa, x1 = 0.0985): 6.58 mPa·s

SMILES: CCCC[N+](CCCC)(CCCC)CCCC.[Cl-] + OCC(O)CO
- viscosity (318.15 K, 100 kPa, x1 = 0.333): 57.8 mPa·s

SMILES: CCCC[n+]1ccn(C)c1.[Cl-] + OCC(O)CO
- speed of sound (298.15 K, 101 kPa, x2 = 0.333): 1838.8 m/s
- speed of sound (303.15 K, 101 kPa, x2 = 0.333): 1826.5 m/s
- speed of sound (313.15 K, 101 kPa, x2 = 0.333): 1802.4 m/s

SMILES: CC[N+](CC)(CC)CC.[Cl-] + OCC(O)CO
- viscosity (318.15 K, 100 kPa, x1 = 0.333): 94.1 mPa·s

SMILES: CC[N+]1(C)CCCC1.[Br-] + OCC(O)CO
- speed of sound (313.15 K, 100 kPa, x1 = 0.3333): 1870.1 m/s

SMILES: CC[n+]1ccn(C)c1.[Cl-] + OCC(O)CO
- viscosity (298.15 K, 101 kPa, x1 = 0.667): 345 mPa·s
- viscosity (303.15 K, 101 kPa, x1 = 0.667): 243 mPa·s
- viscosity (323.15 K, 101 kPa, x1 = 0.667): 75.6 mPa·s
- viscosity (333.15 K, 101 kPa, x1 = 0.667): 47.2 mPa·s

SMILES: C[N+](C)(C)CCCl.[Cl-] + OCC(O)CO
- viscosity (318.15 K, 100 kPa, x1 = 0.333): 161 mPa·s

SMILES: CC[N+]1(C)CCCC1.[Br-] + OCCCCCCO
- speed of sound (293.15 K, 101.3 kPa, x1 = 0.333): 1915.5 m/s
- speed of sound [1]: 1903.4 m/s
- speed of sound [2]: 1891.8 m/s
- speed of sound [3]: 1879.3 m/s
- speed of sound [4]: 1869.1 m/s

SMILES: CCCC[P+](CCCC)(CCCC)CCCC.[Br-] + OCCO
- viscosity [1]: 93.4 mPa·s
- viscosity [2]: 72.4 mPa·s
- viscosity [3]: 56.9 mPa·s
- viscosity [4]: 45.3 mPa·s
- viscosity (318.15 K, 101.3 kPa, x1 = 0.333): 36.6 mPa·s

SMILES: CCCC[n+]1ccn(C)c1.[Cl-] + OCCO
- electrical conductivity (303.15 K, 100 kPa, x1 = 0.333): 0.966 S/m
- electrical conductivity (303.15 K, 100 kPa, x1 = 0.5): 1.06 S/m

SMILES: CC[N+]1(C)CCCC1.[Br-] + OCCO
- speed of sound (293.15 K, 100 kPa, x1 = 0.2): 1716 m/s
- speed of sound (298.15 K, 100 kPa, x1 = 0.2): 1704 m/s
- speed of sound (303.15 K, 100 kPa, x1 = 0.2): 1692 m/s
- speed of sound (308.15 K, 100 kPa, x1 = 0.2): 1681 m/s
- speed of sound (313.15 K, 100 kPa, x1 = 0.2): 1654 m/s

SMILES: [Cl-].c1ccc(C[P+](c2ccccc2)(c2ccccc2)c2ccccc2)cc1 + OCCO
- viscosity (303.15 K, 100 kPa, x1 = 0.0833): 69.7 mPa·s
- viscosity (313.15 K, 100 kPa, x1 = 0.0833): 50.2 mPa·s
- viscosity (333.15 K, 100 kPa, x1 = 0.0833): 31 mPa·s
- viscosity (353.15 K, 100 kPa, x1 = 0.0833): 21.35 mPa·s

SMILES: CCCC[P+](CC)(CCCC)CCCC.[Br-] + OCCOCCO
- viscosity (303.15 K, 101 kPa, x1 = 0.333): 77 mPa·s
- viscosity (313.15 K, 101 kPa, x1 = 0.333): 48.93 mPa·s
- viscosity (323.15 K, 101 kPa, x1 = 0.333): 32.91 mPa·s
- viscosity (343.15 K, 101 kPa, x1 = 0.333): 16.88 mPa·s

SMILES: CCCC[N+]1(C)CCCC1.O=S(=O)([N-]S(=O)(=O)C(F)(F)F)C(F)(F)F + OCCOCCOCCOCCO
- viscosity (298.15 K, 101 kPa, x2 = 0): 70.5 mPa·s

SMILES: CCCC[N+]1(C)CCCCC1.O=S(=O)([N-]S(=O)(=O)C(F)(F)F)C(F)(F)F + OCCOCCOCCOCCO
- viscosity (298.15 K, 101 kPa, x2 = 0): 178.5 mPa·s
- viscosity (298.15 K, 101 kPa, x2 = 0.5): 79.5 mPa·s

SMILES: CCCC[n+]1ccn(C)c1.O=S(=O)([O-])C(F)(F)F + OCCOCCOCCOCCO
- viscosity (298.15 K, 101 kPa, x2 = 0): 59.8 mPa·s

SMILES: CCCC[n+]1ccn(C)c1C.F[B-](F)(F)F + OCCOCCOCCOCCO
- viscosity (298.15 K, 101 kPa, x2 = 0): 573 mPa·s
- viscosity (298.15 K, 101 kPa, x2 = 0.5): 82.1 mPa·s

SMILES: CCCn1cc[n+](C)c1C.O=S(=O)([N-]S(=O)(=O)C(F)(F)F)C(F)(F)F + OCCOCCOCCOCCO
- viscosity (298.15 K, 101 kPa, x2 = 0): 85.6 mPa·s
- viscosity (298.15 K, 101 kPa, x2 = 0.5): 56.1 mPa·s

SMILES: C[N+](C)(C)CCO.O=S(=O)([N-]S(=O)(=O)C(F)(F)F)C(F)(F)F + OCCOCCOCCOCCO
- viscosity (298.15 K, 101 kPa, x2 = 0.5): 87 mPa·s

SMILES: CC[N+](CC)(CC)CC.[Cl-] + Oc1ccccc1
- viscosity (303.15 K, 101 kPa, x1 = 0.333): 72.1 mPa·s
- viscosity (313.15 K, 101 kPa, x1 = 0.2): 21.28 mPa·s
- viscosity (313.15 K, 101 kPa, x1 = 0.25): 24.68 mPa·s
- viscosity (313.15 K, 101 kPa, x1 = 0.333): 43 mPa·s
- viscosity (323.15 K, 101 kPa, x1 = 0.25): 16.86 mPa·s
- viscosity (323.15 K, 101 kPa, x1 = 0.333): 27.8 mPa·s

SMILES: CCCCCCCCn1cc[n+](C)c1.O=S(=O)([N-]S(=O)(=O)C(F)(F)F)C(F)(F)F + c1ccccc1
- viscosity (293 K, 101 kPa, x1 = 0.1): 3.21 mPa·s
- viscosity (293 K, 101 kPa, x1 = 0.4): 23.5 mPa·s
- viscosity (293 K, 101 kPa, x1 = 0.8): 74.4 mPa·s
- viscosity (293 K, 101 kPa, x1 = 1): 113 mPa·s
